Test results from US10954258B2, “STAT3 dimerization inhibitors” (H. LEE MOFFITT CANCER CENTER AND RESEARCH INSTITUTE, INC., priority 2012, dated 2021).

Experiments:
Format in all cases: cell-based, human
[1] = target: T1, STAT3 binding to EGFR (Mus musculus, UniProt P42227); assay: co-immunoprecipitation of EGFR and P-STAT3 with HA-STAT3 after EGF stimulation; conditions: HA-STAT3/FLAG-STAT3/HEK293 cells stimulated with EGF
T1 construct: expressed in transfected cells; host or cells: HEK293 stably co-expressing HA-STAT3 and FLAG-STAT3; EGFR endogenous; stimulated with 100 ng/ml EGF
T1 sequence (P42227 whole entry): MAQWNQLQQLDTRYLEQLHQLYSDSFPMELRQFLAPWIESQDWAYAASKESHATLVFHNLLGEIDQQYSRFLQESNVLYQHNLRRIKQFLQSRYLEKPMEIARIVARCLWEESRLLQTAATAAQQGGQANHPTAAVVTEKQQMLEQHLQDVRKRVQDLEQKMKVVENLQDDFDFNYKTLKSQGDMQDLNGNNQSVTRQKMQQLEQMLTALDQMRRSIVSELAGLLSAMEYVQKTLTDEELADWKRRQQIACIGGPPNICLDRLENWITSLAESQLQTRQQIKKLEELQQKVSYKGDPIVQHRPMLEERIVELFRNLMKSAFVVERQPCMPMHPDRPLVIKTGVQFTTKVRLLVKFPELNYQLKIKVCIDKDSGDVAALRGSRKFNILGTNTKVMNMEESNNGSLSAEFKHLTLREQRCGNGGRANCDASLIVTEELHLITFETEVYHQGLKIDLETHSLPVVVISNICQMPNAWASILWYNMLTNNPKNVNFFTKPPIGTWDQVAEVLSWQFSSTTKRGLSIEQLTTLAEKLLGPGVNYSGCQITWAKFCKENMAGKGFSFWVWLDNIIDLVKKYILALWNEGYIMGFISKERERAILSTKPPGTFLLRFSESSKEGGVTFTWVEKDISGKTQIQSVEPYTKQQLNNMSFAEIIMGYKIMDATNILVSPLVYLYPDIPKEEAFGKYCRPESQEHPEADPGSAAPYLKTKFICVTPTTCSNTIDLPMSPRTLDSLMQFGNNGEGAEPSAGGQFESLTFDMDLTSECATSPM

[2] = test system: STAT3-responsive promoter-firefly luciferase reporter (pLucTKS3); assay: luciferase reporter assay, STAT3-responsive promoter
Experimental: (§1) MDA-MB-468 cells were plated into 12-well plate with 4×10^5 cells per well. The cells were transiently transfected with pLucSRE, pLucTKS3 or STAT3-C with β-gal and then were treated with vehicle, S3I-1756 or S3I-1757 for 48 hours. Then cytosolic extracts of equal total protein were prepared from S3I-1757-treated or -untreated and analyzed for luciferase activity using a TD-20/20 luminometer (Turner Designs, Sunnyvale, Calif., USA) described by us previously.
(§2) To this end, MDA-MB-468 cells were transiently co-transfected with a STAT3-responsive promoter-firefly luciferase reporter (pLucTKS3) and 3-gal reporter used to normalize the transfection efficacy. To determine the selectivity of S3I-1757 to suppress STAT3-dependent over STAT3-independent transcriptional activation, MDA-MB-468 cells were also co-transfected with SRE promoter-renilla luciferase reporter (pLucSRE) and β-gal reporter. […] STAT3-C spontaneously dimerizes via disulfide bonds in the absence of tyrosine phosphorylation and is therefore not predicted to be inhibited by a small molecule that is designed to mimic phosphotyrosine binding.

[3] = test system: SRE promoter-renilla luciferase reporter (pLucSRE); assay: luciferase reporter assay, SRE promoter; conditions: MDA-MB-468; 48 hours
Experimental: as §1, §2

[4] = target: binding of FLAG-STAT3 to HA-STAT3 (Mus musculus, UniProt P42227); assay: co-immunoprecipitation of FLAG-STAT3 with HA-STAT3 in HEK293 cells; conditions: HEK293 cells co-expressing FLAG- and HA-STAT3; treated 4 h
binding of FLAG-STAT3 to HA-STAT3, sequence (P42227 whole entry): as above
Experimental: HEK-293/FLAG-STAT3/HA-STAT3 cells were treated for 4 h with vehicle, S3I-1757, S3I-1756, Ac-G{pTYR}LPQTV-[…]-NH2 (SEQ ID NO:3) or Ac-GYLPQTV-[…]-NH2 (SEQ ID NO:4) and then lysed in 20 mM Tris-HCl (pH 7.4), 5 mM EDTA, 10 mM Na4P2O7, 100 mM NaF, 2 mM Na3VO4, 1% NP-40.1 mM PMSF and 10 mg/ml aprotinin. For EGF stimulation group, HEK-293/FLAG-STAT3/HASTAT3 cells were treated by 100 ng/ml EGF for 30 minutes before making cell lysate. Protein A or G agarose (EMD Millipore, Billerica, Mass., USA) was washed twice with PBS and restore to 50% slurry with PBS. 500 μg of lysate were pre-cleared by mixture of protein A and protein G-agarose for 1 h at 4° C. and then remove protein A and G-agarose by centrifuge at 1300 rpm for 3 minutes. And then 500 μg of lysate was immunoprecipitated with 50 ng of HA antibody overnight at 4° C. on shaker and then capture the immunocomplex by adding 100 μl Protein A and G agarose/sepharose bead slurry for 1 hour at 4° C. Samples were washed five times with lysis buffer and then boiled in 5×SDS-PAGE sample buffer and run on SDS-PAGE gel. Protein was transferred to nitrocellulose membrane and then blotted as described above for HA, FLAG, pSTAT3, EGFR, and STAT3.
However, the FP assay only measured the ability of S3I-1757 to displace the 7 amino acid fluorescein-labelled GpYLPQTV phosphotyrosine peptide from the SH2 domain of STAT3 protein in vitro. Therefore, it was determined if the intracellular reciprocal binding of 2 full-length STAT3 proteins is inhibited. To this end, an assay was developed to measure directly STAT3-STAT3 dimerization in intact cells by cloning HA-tagged STAT3 and FLAG-tagged STAT3, generating HEK293 cells that stably co-express HA-STAT3 and FLAG-STAT3 and using these cells for coimmunoprecipitation and co-localization. […] This assay was validated by treating the FLAG-STAT3/HA-STAT3 HEK293 cells with tyrosine phosphorylated or nonphosphorylated GYLPQTV peptide fused to a membrane-translocating sequence (MTS) to allow cell uptake. […]

[5] = test system: P-STAT3, P-Erk, P-Akt, Bcl-xL, Survivin, MMP9 and Cyclin D1 in MDA-MB-468 cells; assay: western immunoblotting of P-STAT3, P-Akt, P-Erk and STAT3 target genes; conditions: 18 hours
Experimental: MDA-MB-468 cells were treated with vehicle (DMSO), S3I-1757 at 50 μM, 100 μM and 200 μM, and S3I-1756 at 200 μM for 18 hours. Cells were then lysed with RIPA buffer (20 mM Tris-HCl (pH 7.4), 5 mM EDTA, 10 mM Na4P2O7, 100 mM NaF, 2 mM Na3VO4, 1% NP-40.1 mM PMSF and 10 mg/ml aprotinin). The cell lysates were denatured by boiling with 5×SDS-PAGE sample buffer for 5 minutes and run on SDS-PAGE gel. The proteins were then transferred to membranes that were blocked with 5% non-fat milk in Tris Buffer Saline with 0.1% Tween-20 (TBST) buffer for 30 minutes at room temperature, and incubated with primary antibodies (pY705STAT3, pAKT, AKT, pERK1/2, MMP9, and CyclinDi) 4° C. overnight at dilution of 1:1000 in 3% BSA, followed by washing and incubation with secondary antibody at dilution of 1:1000 in 5% non-milk Tris Buffer Saline with 0.1% Tween-20 (TBST) buffer for 1 hours at room temperature. The membranes were then washed with 1×PBS buffer for 10 minutes for 3 times and developed with ECL kit (PerkinElmer, Waltham, Mass., USA).
To this end, MDA-MB-468 cells were treated with vehicle, S3I-1756 or increasing concentration of S3I-1757 and processed for western blotting.

[6] = test system: H460 cells; assay: wound healing (migration) assay, H460; conditions: low levels of P-STAT3
Experimental: A549, MDA-MB-231 and H460 cells were seeded at 6×10^5 cells per dish into 60 mm plate and allowed to grow overnight. Wounds were made the following day by scratching the cells with pipette tips (1-10 μL).

[7] = test system: MDA-MB-468, MDA-MB-231 and A-549 cells; assay: Matrigel invasion assay, cells with activated STAT3; conditions: 48 hours
Experimental: Invasion assay was performed in BD BioCoat™ Matrigel® Invasion Chamber in 24-well plates. A549, MDA-MB-468, MDA-MB-231 and H460 cells were seeded at 25,000 cells/insert in the top chamber over the Matrigel. The bottom chamber contains 20% FBS as the “chemoattractant.” Vehicle, S3I-1756, or S3I-1757 were added the following day. The cells were incubated for 48 hours, after which the cells in the top chamber were carefully removed and the filter membranes containing the invaded cells on the outside of the filter were fixed with methanol, stained with crystal violet and photographed.

Structure (SMILES): O=C(O)c1cc(N(Cc2ccc(C3CCCCC3)cc2)C(=O)c2ccc(Oc3ccccc3)cc2)ccc1O [Compound 20g, 5-(N-(4-Cyclohexylbenzyl)-4-phenoxybenzamido)-2-hydroxybenzoic acid]
- EGFR and P-STAT3 co-immunoprecipitated with HA-STAT3 [1]: inhibited these interactions
- STAT3-dependent luciferase activity (pLucTKS3) ([2]; MDA-MB-468, 48 hours): less luciferase activity
- STAT3-dependent transcriptional activity in cells transfected with STAT3-C ([2]; MDA-MB-468 transfected with STAT3-C): rescued from the S3I-1757 inhibition
- SRE-driven luciferase activity (STAT3-independent) [3]: minimal effect
- binding of FLAG-STAT3 to HA-STAT3 (co-immunoprecipitation) [4]: inhibited the binding of FLAG-STAT3 to HA-STAT3 in a concentration-dependent manner
- expression of STAT3 target genes Bcl-xL, survivin, cyclin D1, MMP9 [5]: inhibited the expression of STAT3 target genes
- phosphorylation of STAT3-Y705 (western blotting) [5]: inhibited the phosphorylation of STAT3-Y705 in a concentration dependent manner starting at 50 μM
- selectivity of inhibition over Akt and Erk1/2 phosphorylation [5]: selective for STAT3 over Akt and Erk1/2 phosphorylation
- migration (wound healing), H460 [6]: minimally affected
- invasion, MDA-MB-468, MDA-MB-231 and A-549 [7]: inhibited invasion
